Laboratory results published in patent publication US20220323406A1, “METHODS AND COMPOSITIONS FOR DIFFERENTIATING STEM CELLS” (Massachusetts Institute of Technology, priority 2019, published 2022).
Structures can show the parent of a compound that is named as a salt.

Assays:
[1] = tested on: ENR+CD organoids (ISC to Paneth cell differentiation); assay: Primary screen: basal (non-stimulated) lysozyme secretion LYZ.NS, 2.5-D 384-well ENR+CD organoid differentiation; format: cell-based, mouse
Source text: (§1) High-throughput screening.

ENR+CD organoids [2] = assay: Secondary (validation) screen: ATP (CTG) assay, 2.5-D 384-well ENR+CD organoids; format: cell-based, mouse; settings: 6-day ENR+CD, vs ENR+CD+DMSO
Experimental: (§2) Drugs were tested at a narrowed dose range around each treatment's identified optimal dose from the primary screen (4× below, 2× above and below).
as §1
(§3) Secondary lysozyme secretion assay screen. Confirmatory secondary screening with primary hits was performed using the above 384-well plate method. The screen was conducted with 4-plate replicates with a base media of ENR+CD. Media was supplemented with compound at day 0 and day 3 (n=8 well replicates per dose) at four different doses: two-fold above, two-fold below, and four-fold below the optimal final dose for each respective treatment. Additionally, each plate carried a large number of ENR+DMSO or ENR+CD+DMSO (vehicle) control wells (n=100 for ATP, and n=25 for LYZ.NS and LYZ.S) for robust normalization. ATP, non-stimulated lysozyme activity and CCh-stimulated lysozyme activity was again measured and the collected data was again processed in a custom R-script, per primary screen with slight modification. Values were log10 transformed, and a plate-wise FC was calculated for each well based on the median value of ENR+CD+DMSO (vehicle) control wells to normalize plate to plate variability.

[3] = tested on: ENR+CD organoids (ISC to Paneth cell differentiation); assay: Secondary (validation) screen: LYZ.S CCh-stimulated lysozyme secretion, 2.5-D 384-well ENR+CD organoids; format: cell-based, mouse; settings: 6-day ENR+CD, vs ENR+CD+DMSO
Experimental: as §2, §1, §3

[4] = tested on: ENR+CD organoids (ISC to Paneth cell differentiation); assay: Primary screen: CCh-stimulated lysozyme secretion LYZ.S, 2.5-D 384-well ENR+CD organoid differentiation; format: cell-based, mouse; settings: primary screen
Source text: as §1

ENR+CD organoids [5] = assay: Primary screen: ATP (CellTiter-Glo 3D, CTG) cell number/viability, 2.5-D 384-well ENR+CD organoids; settings: primary screen;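 note: compounds given at plating and again on day 3 over a 6-day differentiation from ENR+CV stem-cell-enriched precursors, ATP measured on day 6, plate median as control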
[6] = tested on: ENR+CD organoids (ISC to Paneth cell differentiation); assay: Secondary (validation) screen: LYZ.NS basal lysozyme secretion, 2.5-D 384-well ENR+CD organoids; format: cell-based, mouse; settings: 6-day ENR+CD, vs ENR+CD+DMSO
Experimental: as §2, §1, §3

[7] = LYZ.NS and LYZ.S; 0.08-10 uM, 6 days ENR+CD
[8] = dose 0.08 uM, FC relative to plate median
[9] = dose 0.40 uM, FC relative to plate median
[10] = dose 2.00 uM, FC relative to plate median
[11] = dose 10.00 uM, FC relative to plate median

CC(C)(C)NC(=O)[C@H]1CC[C@H]2[C@@H]3CC[C@H]4NC(=O)C=C[C@]4(C)[C@H]3CC[C@]12C [Finasteride, reference compound]
primary screen hit call (SSMD and z-scored FC cutoffs in both LYZ assays) [1, 7]: sole hit in their respective pathway
Dose.FC.LYZ.NS ([1]; primary screen, dose 0.08 uM): 0.205 log2 fold change
Dose.FC.LYZ.NS ([1]; primary screen, dose 0.40 uM): 0.213 log2 fold change
Dose.FC.LYZ.NS ([1]; primary screen, dose 2.00 uM): 0.142 log2 fold change
Dose.FC.LYZ.NS ([1]; primary screen, dose 10.00 uM): 0.067 log2 fold change
Z.LYZ.NS ([1]; primary screen, standard z score, dose 0.08 uM): 1.781
Z.LYZ.NS ([1]; primary screen, standard z score, dose 0.40 uM): 1.852
Z.LYZ.NS ([1]; primary screen, standard z score, dose 2.00 uM): 1.236
Z.LYZ.NS ([1]; primary screen, standard z score, dose 10.00 uM): 0.587
Dose.FC.CTG (ENR+CD organoids [2]; 0.02 uM): 0.066 log2 fold change
Dose.FC.CTG (ENR+CD organoids [2]; 0.04 uM): −0.180 log2 fold change
Dose.FC.CTG (ENR+CD organoids [2]; 0.08 uM): −0.011 log2 fold change
Dose.FC.CTG (ENR+CD organoids [2]; […]): −0.065 log2 fold change
Dose.FC.LYZ.S ([3]; 0.02 uM): −0.019 log2 fold change
Dose.FC.LYZ.S ([3]; 0.04 uM): −0.260 log2 fold change
Dose.FC.LYZ.S ([3]; 0.08 uM): −0.242 log2 fold change
Dose.FC.LYZ.S ([3]; […]): −0.253 log2 fold change
Dose.FC.LYZ.S ([4]; dose 0.08 uM): 0.199 log2 fold change
Dose.FC.LYZ.S ([4]; dose 0.40 uM): 0.211 log2 fold change
Dose.FC.LYZ.S ([4]; dose 2.00 uM): 0.156 log2 fold change
Dose.FC.LYZ.S ([4]; dose 10.00 uM): 0.056 log2 fold change
Dose.FC.CTG (ENR+CD organoids [5]; dose 0.08 uM): 0.151 log2 fold change
Dose.FC.CTG (ENR+CD organoids [5]; dose 0.40 uM): −0.038 log2 fold change
Dose.FC.CTG (ENR+CD organoids [5]; dose 2.00 uM): 0.073 log2 fold change
Dose.FC.CTG (ENR+CD organoids [5]; dose 10.00 uM): −0.041 log2 fold change
Dose.FC.LYZ.NS ([6]; 0.02 uM): 0.056 log2 fold change
Dose.FC.LYZ.NS ([6]; 0.04 uM): −0.189 log2 fold change
Dose.FC.LYZ.NS ([6]; 0.08 uM): −0.191 log2 fold change
Dose.FC.LYZ.NS ([6]; […]): −0.203 log2 fold change

C[C@H](NCc1ccc(OCc2cccc(F)c2)cc1)C(N)=O [Safinamide Mesylate, reference compound]
primary screen hit call (SSMD and z-scored FC cutoffs in both LYZ assays) [1, 7]: sole hit in their respective pathway
Dose.FC.LYZ.NS ([1]; primary screen, dose 0.08 uM, FC relative to plate median): 0.160 log2 fold change
Z.LYZ.NS ([1]; primary screen, dose 0.08 uM, standard z score): 1.394
Dose.FC.LYZ.NS ([1]; primary screen, dose 0.40 uM, FC relative to plate median): 0.093 log2 fold change
Z.LYZ.NS ([1]; primary screen, dose 0.40 uM, standard z score): 0.814
Dose.FC.LYZ.NS ([1]; primary screen, dose 2.00 uM, FC relative to plate median): 0.174 log2 fold change
Z.LYZ.NS ([1]; primary screen, dose 2.00 uM, standard z score): 1.518
Dose.FC.LYZ.NS ([1]; primary screen, dose 10.00 uM, FC relative to plate median): 0.057 log2 fold change
Z.LYZ.NS ([1]; primary screen, dose 10.00 uM, standard z score): 0.499
Dose.FC.CTG (ENR+CD organoids [2]; 0.50 uM): −0.014 log2 fold change
Dose.FC.CTG (ENR+CD organoids [2]; 1.00 uM): −0.082 log2 fold change
Dose.FC.CTG (ENR+CD organoids [2]; 2.00 uM): −0.011 log2 fold change
Dose.FC.CTG (ENR+CD organoids [2]; 4.00 uM): −0.002 log2 fold change
Dose.FC.LYZ.S ([3]; 0.50 uM): −0.213 log2 fold change
Dose.FC.LYZ.S ([3]; 1.00 uM): −0.294 log2 fold change
Dose.FC.LYZ.S ([3]; 2.00 uM): −0.099 log2 fold change
Dose.FC.LYZ.S ([3]; 4.00 uM): −0.086 log2 fold change
Dose.FC.LYZ.S [4, 8]: 0.302 log2 fold change
Dose.FC.LYZ.S [4, 9]: 0.191 log2 fold change
Dose.FC.LYZ.S [4, 10]: 0.236 log2 fold change
Dose.FC.LYZ.S [4, 11]: 0.143 log2 fold change
Dose.FC.CTG (ENR+CD organoids [5]; [8]): 0.265 log2 fold change
Dose.FC.CTG (ENR+CD organoids [5]; [9]): 0.241 log2 fold change
Dose.FC.CTG (ENR+CD organoids [5]; [10]): 0.263 log2 fold change
Dose.FC.CTG (ENR+CD organoids [5]; [11]): 0.369 log2 fold change
Dose.FC.LYZ.NS ([6]; 0.50 uM): −0.156 log2 fold change
Dose.FC.LYZ.NS ([6]; 1.00 uM): −0.231 log2 fold change
Dose.FC.LYZ.NS ([6]; 2.00 uM): −0.046 log2 fold change
Dose.FC.LYZ.NS ([6]; 4.00 uM): −0.034 log2 fold change
